Experimental data as given in patent publication US20250092065A1, “2-(INDAZOL-5-YL)-6-(PIPERIDIN-4-YL)-1,7-NAPHTHYRIDINE DERIVATIVES AND RELATED COMPOUNDS AS MODULATORS FOR SPLICING NUCLEIC ACIDS AND FOR THE TREATMENT OF PROLIFERATIVE DISEASES” (REMIX THERAPEUTICS INC., priority 2022, published 2025).
pIC50: −log10 of the molar value. Structures can show the parent of a compound that is named as a salt. Where two headings read alike, the source gives them in different places.

Experiments:
[1] = system: MYB mRNA; assay: RT-qPCR splicing assay, MYB mRNA canonical (CJ) and alternative (AJ) junction; type: cell-based, human; conditions: Homo sapiens; for AC50: MYB alternative junction mRNA, read-out: MYB AJ (increase in AJ mRNA, AC50)
Method in brief: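 A673 or K562 cells treated 24 h at 37 °C with an 11-point 3-fold dilution series (top 10 uM, DMSO ≤0.25%). Lysates went directly to one-step RT-qPCR quantifying canonical (CJ) and alternative-exon (AJ) junctions, normalized to GAPDH, GUSB or PPIA. Values from ΔΔCt versus DMSO, RQ = 2^(−ΔΔCt), expressed as percentage response.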

[2] = system: Target C; assay: RT-qPCR canonical junction panel assay, Target C mRNA; type: cell-based; conditions: Table 4, read-out: Target C IC50 (decrease in CJ mRNA levels)
Method in brief: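 A673 or K562 cells treated with compound; CJ mRNA quantified by junction-spanning RT-qPCR probe after cDNA synthesis, normalised to GAPDH, GUSB or PPIA and DMSO (2^−ΔΔCt), scaled to set ΔCt assay window; IC50 from 4-parameter fit of CJ decrease.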

[3] = MYB canonical junction mRNA, RT-qPCR, read-out: MYB CJ (decrease in CJ mRNA levels, IC50)
[4] = canonical junction qPCR panel, Table 4, read-out: MYB IC50 (decrease in CJ mRNA levels)

Compound	AC50 ([1]; RT-qPCR) [nM]	pIC50 [1, 3]	pIC50 [1, 4]	pIC50 [2]
CNC(=O)c1nc(-c2cc3cn(C)nc3cc2O)nc2ccc(N3C[C@@H](C)N[C@@H](C)C3)cc12 [Compound 531, 6-[(3R,5S)-3,5-dimethylpiperazin-1-yl]-2-(6-hydroxy-2-methylindazol-5-yl)-N-methylquinazoline-4-carboxamide]	< 100	> 7.00	> 7.00	< 5.00
CNC(=O)c1nc(-c2cc3cn(C)nc3c(C)c2O)nc2ccc(N3CCNC4(CC4)C3)cc12 [Compound 532, 6-{4,7-diazaspiro[2.5]octan-7-yl}-2-(6-hydroxy-2,7-dimethylindazol-5-yl)-N-methylquinazoline-4-carboxamide]	< 100	> 7.00	> 7.00	< 5.00
CNC(=O)c1nc(-c2cc3cn(C)nc3c(C)c2O)nc2ccc(N3CCNCC3)nc12 [Compound 533, 2-(6-hydroxy-2,7-dimethylindazol-5-yl)-N-methyl-6-(piperazin-1-yl)pyrido[3,2-d]pyrimidine-4-carboxamide]	100 to 1000	6.00 to 7.00	6.00 to 7.00	< 5.00
CNC(=O)c1nc(-c2cc3cn(C)nc3c(C)c2O)nc2ccc(N3C[C@@H](C)N[C@@H](C)C3)nc12 [Compound 534, 6-[(3R,5S)-3,5-dimethylpiperazin-1-yl]-2-(6-hydroxy-2,7-dimethylindazol-5-yl)-N-methylpyrido[3,2-d]pyrimidine-4-carboxamide]	100 to 1000	6.00 to 7.00	6.00 to 7.00	< 5.00
CCNC(=O)c1nc(-c2cc3cn(C)nc3c(C)c2O)nc2ccc(N3C[C@@H](C)N[C@@H](C)C3)cc12 [Compound 535, 6-[(3R,5S)-3,5-dimethylpiperazin-1-yl]-N-ethyl-2-(6-hydroxy-2,7-dimethylindazol-5-yl)quinazoline-4-carboxamide]	< 100	> 7.00	> 7.00	5.00 to 6.00
CNC(=O)c1nc(-c2cc3cn(C)nc3c(C)c2O)nc2ccc(N3CC[C@@H](NC)C3)cc12 [Compound 536, 2-(6-hydroxy-2,7-dimethylindazol-5-yl)-N-methyl-6-[(3R)-3-(methylamino)pyrrolidin-1-yl]quinazoline-4-carboxamide]	< 100	> 7.00	> 7.00	> 7.00
CNC(=O)c1nc(-c2cc3cn(C)nc3c(C)c2O)nc2ccc(N3CC[C@H](NC)C3)cc12 [Compound 537, 2-(6-hydroxy-2,7-dimethylindazol-5-yl)-N-methyl-6-[(3S)-3-(methylamino)pyrrolidin-1-yl]quinazoline-4-carboxamide]	< 100	> 7.00	> 7.00	6.00 to 7.00
Cc1c(O)c(-c2nc(-c3c[nH]nn3)c3cc(N4CCNCC4)ccc3n2)cc2cn(C)nc12 [Compound 538, 2,7-dimethyl-5-[6-(piperazin-1-yl)-4-(1H-1,2,3-triazol-4-yl)quinazolin-2-yl]indazol-6-ol hydrochloride]	1000 to 10000	5.00 to 6.00	5.00 to 6.00	5.00 to 6.00
Cc1c(O)c(-c2nc(C(=O)NC(C)C)c3cc(N4C[C@@H](C)N[C@@H](C)C4)ccc3n2)cc2cn(C)nc12 [Compound 539, 6-[(3R,5S)-3,5-dimethylpiperazin-1-yl]-2-(6-hydroxy-2,7-dimethylindazol-5-yl)-N-isopropylquinazoline-4-carboxamide]	< 100	> 7.00	> 7.00	6.00 to 7.00
Cc1c(O)c(-c2nc(C(=O)NC3CCC3)c3cc(N4C[C@@H](C)N[C@@H](C)C4)ccc3n2)cc2cn(C)nc12 [Compound 540]	< 100	> 7.00	> 7.00	< 5.00
Cc1c(O)c(-c2nc(-c3nn[nH]n3)c3cc(N4CCNCC4)ccc3n2)cc2cn(C)nc12 [Compound 541, 2,7-dimethyl-5-[6-(piperazin-1-yl)-4-(2H-1,2,3,4-tetrazol-5-yl)quinazolin-2-yl]indazol-6-ol]	1000 to 10000	5.00 to 6.00	5.00 to 6.00	5.00 to 6.00
C[C@@H]1CN(c2ccc3nc(-c4cc5cn(C)nc5c(F)c4O)nc(C4CC4)c3c2)C[C@H](C)N1 [Compound 542, 5-{4-cyclopropyl-6-[(3R,5S)-3,5-dimethylpiperazin-1-yl]quinazolin-2-yl}-7-fluoro-2-methylindazol-6-ol]	< 100	> 7.00	> 7.00	< 5.00
CN[C@@H]1CCN(c2ccc3nc(-c4cc5cn(C)nc5c(F)c4O)nc(C4CC4)c3c2)C1 [Compound 543, 5-{4-cyclopropyl-6-[(3R)-3-(methylamino)pyrrolidin-1-yl]quinazolin-2-yl}-7-fluoro-2-methylindazol-6-ol]	< 100	> 7.00	> 7.00	6.00 to 7.00
Cc1cn2cc(-c3ccc4cc(N5C[C@@H](C)N[C@@H](C)C5)cc(F)c4n3)cc(F)c2n1 [Compound 544, 6-[(3R,5S)-3,5-dimethylpiperazin-1-yl]-8-fluoro-2-{8-fluoro-2-methylimidazo[1,2-a]pyridin-6-yl}quinoline]	100 to 1000	6.00 to 7.00	6.00 to 7.00	5.00 to 6.00
CNC(=O)c1nc(-c2cc3cn(C)nc3c(C)c2O)nc2ccc(N3C[C@H](C)N[C@@H](C)C3)cc12 [Compound 652, 6-[(3S,5S)-3,5-dimethylpiperazin-1-yl]-2-(6-hydroxy-2,7-dimethylindazol-5-yl)-N-methylquinazoline-4-carboxamide]	< 100	> 7.00	> 7.00	< 5.00
Cc1c(O)c(-c2ncc3cc(N4C[C@H](C)N[C@@H](C)C4)ccc3n2)cc2cn(C)nc12 [Compound 660, 5-{6-[(3S,5S)-3,5-dimethylpiperazin-1-yl]quinazolin-2-yl}-2,7-dimethylindazol-6-ol]	< 100	> 7.00	> 7.00	5.00 to 6.00
CNC(=O)c1nc(-c2cc3cn(C)nc3c(C)c2O)nc2ccc(N3CCC(N4CCC4)CC3)cc12 [Compound 706]	< 100	> 7.00	> 7.00	< 5.00
C[C@@H]1CN(c2ccc3nc(-c4cc5cn(C)nc5c(F)c4O)nc(C#N)c3c2)C[C@H](C)N1 [Compound 707, 6-[(3R,5S)-3,5-dimethylpiperazin-1-yl]-2-(7-fluoro-6-hydroxy-2-methylindazol-5-yl) quinazoline-4-carbonitrile]	< 100	> 7.00	> 7.00	6.00 to 7.00
C[C@@H]1CN(c2ccc3nc(-c4cc5cn(C)nc5c(F)c4O)nc(C(N)=O)c3c2)C[C@H](C)N1 [Compound 712, 6-[(3R,5S)-3,5-dimethylpiperazin-1-yl]-2-(7-fluoro-6-hydroxy-2-methylindazol-5-yl) quinazoline-4-carboxamide]	< 100	> 7.00	> 7.00	< 5.00
CC(=O)c1nc(-c2cc3cn(C)nc3c(F)c2O)nc2ccc(N3C[C@@H](C)N[C@@H](C)C3)cc12 [Compound 717, 1-{6-[(3R,5S)-3,5-dimethylpiperazin-1-yl]-2-(7-fluoro-6-hydroxy-2-methylindazol-5-yl)quinazolin-4-yl}ethanone]	< 100	> 7.00	> 7.00	6.00 to 7.00
